Measured values published in PubChem BioAssay (NCI).
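All cell lines were grown in 96-well plates and treated with compound for 48 hours. Definition used: TGI = concentration required for complete inhibition of growth.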

Assays:
Test in all cases: inhibition of tumour cell growth, NCI panel, 48 h
SF-539 CNS = system: SF-539 CNS
SF-268 CNS = system: SF-268 CNS
SNB-75 CNS = system: SNB-75 CNS
MOLT-4 leukemia = system: MOLT-4 leukemia
MCF7 breast = system: MCF7 breast
HCT-15 colon = system: HCT-15 colon
U251 CNS = system: U251 CNS
HCT-116 colon = system: HCT-116 colon
NCI-H23 lung = system: NCI-H23 lung
HOP-92 NSCLC = system: HOP-92 NSCLC
SR leukemia = system: SR leukemia
MDA-MB-231 breast = system: MDA-MB-231 breast
NCI-H522 lung = system: NCI-H522 lung
OVCAR-8 ovarian = system: OVCAR-8 ovarian
NCI/ADR-RES ovarian = system: NCI/ADR-RES ovarian
NCI-H460 lung = system: NCI-H460 lung
SK-MEL-2 melanoma = system: SK-MEL-2 melanoma
LOX IMVI melanoma = system: LOX IMVI melanoma
MDA-N = system: MDA-N
HT29 colon = system: HT29 colon
CCRF-CEM leukemia = system: CCRF-CEM leukemia
MDA-MB-435 = system: MDA-MB-435
SF-295 CNS = system: SF-295 CNS
TK-10 renal = system: TK-10 renal
KM12 colon = system: KM12 colon
UACC-62 melanoma = system: UACC-62 melanoma
SK-OV-3 ovarian = system: SK-OV-3 ovarian
OVCAR-3 ovarian = system: OVCAR-3 ovarian
OVCAR-4 ovarian = system: OVCAR-4 ovarian
MALME-3M melanoma = system: MALME-3M melanoma
HOP-62 NSCLC = system: HOP-62 NSCLC
SK-MEL-5 melanoma = system: SK-MEL-5 melanoma
HCC-2998 colon = system: HCC-2998 colon
A549 NSCLC = system: A549 NSCLC
SN12C renal = system: SN12C renal
RXF 393 renal = system: RXF 393 renal
A498 renal = system: A498 renal
M14 melanoma = system: M14 melanoma
COLO 205 colon = system: COLO 205 colon
PC-3 prostate = system: PC-3 prostate
T-47D breast = system: T-47D breast
UACC-257 melanoma = system: UACC-257 melanoma
NCI-H226 lung = system: NCI-H226 lung
HL-60(TB) leukemia = system: HL-60(TB) leukemia
SK-MEL-28 melanoma = system: SK-MEL-28 melanoma
SNB-19 CNS = system: SNB-19 CNS
IGROV1 ovarian = system: IGROV1 ovarian
K-562 leukemia = system: K-562 leukemia
UO-31 renal = system: UO-31 renal
DU-145 prostate = system: DU-145 prostate
ACHN renal = system: ACHN renal
SW-620 colon = system: SW-620 colon
786-0 renal = system: 786-0 renal
RPMI-8226 leukemia = system: RPMI-8226 leukemia
EKVX NSCLC = system: EKVX NSCLC
HS 578T breast = system: HS 578T breast
OVCAR-5 ovarian = system: OVCAR-5 ovarian
CAKI-1 renal = system: CAKI-1 renal

Q: For `CC(=O)OCC1OC(n2c(C)c(C(C)=O)c(-c3ccc(Cl)cc3)c(C#N)c2=S)C(OC(C)=O)C(OC(C)=O)C1OC(C)=O` (stereo unspecified), which TGI (SF-539 CNS) is on record?
A: > 100 µM

Q: And the TGI (SF-268 CNS)?
A: > 100 µM

Q: What about the TGI (SNB-75 CNS) of the same compound?
A: > 100 µM

Q: And the TGI (MOLT-4 leukemia)?
A: > 100 µM

Q: What about the TGI (MCF7 breast) of the same compound?
A: > 100 µM

Q: And the TGI (HCT-15 colon)?
A: > 100 µM

Q: What about the TGI (U251 CNS) of the same compound?
A: > 100 µM

Q: What about the TGI (HCT-116 colon) of the same compound?
A: > 100 µM

Q: What about the TGI (NCI-H23 lung) of the same compound?
A: > 100 µM

Q: What about the TGI (HOP-92 NSCLC) of the same compound?
A: > 100 µM

Q: And the TGI (SR leukemia)?
A: > 100 µM

Q: And the TGI (MDA-MB-231 breast)?
A: > 100 µM

Q: What about the TGI (NCI-H522 lung) of the same compound?
A: > 100 µM

Q: And the TGI (OVCAR-8 ovarian)?
A: > 100 µM

Q: What about the TGI (NCI/ADR-RES ovarian) of the same compound?
A: > 100 µM

Q: And the TGI (NCI-H460 lung)?
A: > 100 µM

Q: What about the TGI (SK-MEL-2 melanoma) of the same compound?
A: > 100 µM

Q: And the TGI (LOX IMVI melanoma)?
A: > 100 µM

Q: And the TGI (MDA-N)?
A: > 100 µM

Q: What about the TGI (HT29 colon) of the same compound?
A: > 100 µM

Q: What about the TGI (CCRF-CEM leukemia) of the same compound?
A: > 100 µM

Q: What about the TGI (MDA-MB-435) of the same compound?
A: > 100 µM

Q: What about the TGI (SF-295 CNS) of the same compound?
A: > 100 µM

Q: And the TGI (TK-10 renal)?
A: > 100 µM

Q: What about the TGI (KM12 colon) of the same compound?
A: > 100 µM

Q: And the TGI (UACC-62 melanoma)?
A: > 100 µM

Q: What about the TGI (SK-OV-3 ovarian) of the same compound?
A: > 100 µM

Q: What about the TGI (OVCAR-3 ovarian) of the same compound?
A: > 100 µM

Q: And the TGI (OVCAR-4 ovarian)?
A: > 100 µM

Q: And the TGI (MALME-3M melanoma)?
A: > 100 µM

Q: What about the TGI (HOP-62 NSCLC) of the same compound?
A: > 100 µM

Q: What about the TGI (SK-MEL-5 melanoma) of the same compound?
A: > 100 µM

Q: And the TGI (HCC-2998 colon)?
A: > 100 µM

Q: What about the TGI (A549 NSCLC) of the same compound?
A: > 100 µM

Q: And the TGI (SN12C renal)?
A: > 100 µM

Q: What about the TGI (RXF 393 renal) of the same compound?
A: > 100 µM

Q: What about the TGI (A498 renal) of the same compound?
A: > 100 µM

Q: And the TGI (M14 melanoma)?
A: > 100 µM

Q: What about the TGI (COLO 205 colon) of the same compound?
A: > 100 µM

Q: What about the TGI (PC-3 prostate) of the same compound?
A: > 100 µM

Q: What about the TGI (T-47D breast) of the same compound?
A: > 100 µM

Q: What about the TGI (UACC-257 melanoma) of the same compound?
A: > 100 µM

Q: And the TGI (NCI-H226 lung)?
A: > 100 µM

Q: And the TGI (HL-60(TB) leukemia)?
A: > 100 µM

Q: And the TGI (SK-MEL-28 melanoma)?
A: > 100 µM

Q: And the TGI (SNB-19 CNS)?
A: > 100 µM

Q: What about the TGI (IGROV1 ovarian) of the same compound?
A: > 100 µM

Q: And the TGI (K-562 leukemia)?
A: > 100 µM

Q: And the TGI (UO-31 renal)?
A: > 100 µM

Q: What about the TGI (DU-145 prostate) of the same compound?
A: > 100 µM

Q: And the TGI (ACHN renal)?
A: > 100 µM

Q: What about the TGI (SW-620 colon) of the same compound?
A: > 100 µM

Q: What about the TGI (786-0 renal) of the same compound?
A: > 100 µM

Q: Which results are given for `CC1(C)COC(c2ccc(C(=O)c3ccc(Cl)cc3)cc2)=N1`?
A: TGI (SF-539 CNS): > 100 µM; TGI (SF-268 CNS): > 100 µM; TGI (SNB-75 CNS): > 100 µM; TGI (MOLT-4 leukemia): > 100 µM; TGI (MCF7 breast): > 100 µM; TGI (HCT-15 colon): > 100 µM; TGI (U251 CNS): > 100 µM; TGI (HCT-116 colon): > 100 µM; TGI (NCI-H23 lung): > 100 µM; TGI (HOP-92 NSCLC): > 100 µM; TGI (MDA-MB-231 breast): > 100 µM; TGI (NCI-H522 lung): > 100 µM; TGI (OVCAR-8 ovarian): > 100 µM; TGI (NCI/ADR-RES ovarian): > 100 µM; TGI (NCI-H460 lung): > 100 µM; TGI (SK-MEL-2 melanoma): > 100 µM; TGI (LOX IMVI melanoma): > 100 µM; TGI (MDA-N): > 100 µM; TGI (HT29 colon): > 100 µM; TGI (CCRF-CEM leukemia): > 100 µM; TGI (MDA-MB-435): > 100 µM; TGI (SF-295 CNS): > 100 µM; TGI (KM12 colon): > 100 µM; TGI (UACC-62 melanoma): > 100 µM; TGI (SK-OV-3 ovarian): > 100 µM; TGI (OVCAR-3 ovarian): > 100 µM; TGI (MALME-3M melanoma): > 100 µM; TGI (HOP-62 NSCLC): > 100 µM; TGI (SK-MEL-5 melanoma): 30.5 µM; TGI (RPMI-8226 leukemia): > 100 µM; TGI (HCC-2998 colon): > 100 µM; TGI (A549 NSCLC): > 100 µM; TGI (SN12C renal): > 100 µM; TGI (RXF 393 renal): > 100 µM; TGI (M14 melanoma): > 100 µM; TGI (COLO 205 colon): > 100 µM; TGI (PC-3 prostate): > 100 µM; TGI (UACC-257 melanoma): 64.9 µM; TGI (EKVX NSCLC): > 100 µM; TGI (NCI-H226 lung): > 100 µM; TGI (HL-60(TB) leukemia): > 100 µM; TGI (SK-MEL-28 melanoma): > 100 µM; TGI (SNB-19 CNS): > 100 µM; TGI (HS 578T breast): > 100 µM; TGI (IGROV1 ovarian): > 100 µM; TGI (K-562 leukemia): > 100 µM; TGI (UO-31 renal): > 100 µM; TGI (DU-145 prostate): > 100 µM; TGI (ACHN renal): > 100 µM; TGI (OVCAR-5 ovarian): > 100 µM; TGI (SW-620 colon): > 100 µM; TGI (786-0 renal): > 100 µM; TGI (CAKI-1 renal): > 100 µM
